In patent US20260124184A1, “ONCE DAILY ALDOSTERONE SYNTHASE INHIBITOR (R)-(+)-5-(P-CYANOPHENYL)-5,6,7,8-TETRAHYDROIMIDAZO[L,5-A]PYRIDINE” (priority 2022, published 2026):
Like-named read-outs stand apart in the source and are kept apart here.

Tested on: patients with primary aldosteronism
Description: A double-blind, randomized, Phase 2 trial was conducted between November 2019 and June 2022 at 11 centres in Italy, Switzerland and the Netherlands (NCT04007406). […] Patients requiring fixed-dose antihypertensive therapy continued treatment throughout the study; steroid therapies, β-adrenergic and renin-angiotensin-aldosterone system blockers were not permitted. At 14-day intervals, office blood pressures were recorded and blood samples were taken for measurement of steroid and peptide hormones and electrolytes at a central laboratory.

[1] = 4 mg once daily, n=10, Day 1 (baseline)
[2] = 4 mg once daily, n=10, Day 70 (after placebo withdrawal)
[3] = 8 mg once daily, n=11, Day 1 (baseline)
[4] = 8 mg once daily, n=11, Day 70 (after placebo withdrawal)

Substance: (R)-(+)-5-(p-cyanophenyl)-5,6,7,8-tetrahydroimidazolium[1,5-a]pyridine dihydrogen phosphate [dexfadrostat phosphate]
- plasma potassium, mean [1]: 3.36 nmol/L
- plasma potassium, median [1]: 3.35 nmol/L
- plasma potassium, mean (4 mg once daily, n=10, Day 14): 4.27 nmol/L
- plasma potassium, median (4 mg once daily, n=10, Day 14): 4.35 nmol/L
- plasma potassium, mean (4 mg once daily, n=10, Day 28): 3.85 nmol/L
- plasma potassium, median (4 mg once daily, n=10, Day 28): 3.85 nmol/L
- plasma potassium, mean (4 mg once daily, n=10, Day 42): 4.07 nmol/L
- plasma potassium, median (4 mg once daily, n=10, Day 42): 4.15 nmol/L
- plasma potassium, mean (4 mg once daily, n=10, Day 56): 4.10 nmol/L
- plasma potassium, median (4 mg once daily, n=10, Day 56): 4.20 nmol/L
- plasma potassium, mean [2]: 3.58 nmol/L
- plasma potassium, median [2]: 3.60 nmol/L
- plasma potassium, mean [3]: 3.55 nmol/L
- plasma potassium, median [3]: 3.50 nmol/L
- plasma potassium, mean (8 mg once daily, n=11, Day 14): 4.32 nmol/L
- plasma potassium, median (8 mg once daily, n=11, Day 14): 4.30 nmol/L
- plasma potassium, mean (8 mg once daily, n=11, Day 28): 4.04 nmol/L
- plasma potassium, median (8 mg once daily, n=11, Day 28): 4.00 nmol/L
- plasma potassium, mean (8 mg once daily, n=11, Day 42): 3.99 nmol/L
- plasma potassium, median (8 mg once daily, n=11, Day 42): 3.90 nmol/L
- plasma potassium, mean (8 mg once daily, n=11, Day 56): 4.10 nmol/L
- plasma potassium, median (8 mg once daily, n=11, Day 56): 4.10 nmol/L
- plasma potassium, mean [4]: 3.76 nmol/L
- plasma potassium, median [4]: 3.80 nmol/L
- plasma potassium upon drug withdrawal (Day 70, after 14-day placebo withdrawal): potassium values returned towards baseline levels
- plasma potassium concentration, mean (baseline potassium <3.6 mmol/L, 4 mg QD, Day 1 (baseline)): 3.1 mmol/L
- plasma potassium concentration, mean (baseline potassium <3.6 mmol/L, 4 mg QD, Day 14): 4.1 mmol/L
- plasma potassium concentration, mean (baseline potassium <3.6 mmol/L, 4 mg QD, Day 28): 3.8 mmol/L
- plasma potassium concentration, mean (baseline potassium <3.6 mmol/L, 4 mg QD, Day 42): 3.9 mmol/L
- plasma potassium concentration, mean (baseline potassium <3.6 mmol/L, 4 mg QD, Day 56): 4.0 mmol/L
- plasma potassium concentration, mean (baseline potassium <3.6 mmol/L, 4 mg QD, Day 70 (placebo withdrawal)): 3.3 mmol/L
- plasma potassium concentration, mean (baseline potassium <3.6 mmol/L, 8 mg QD, Day 1 (baseline)): 3.3 mmol/L
- plasma potassium concentration, mean (baseline potassium <3.6 mmol/L, 8 mg QD, Day 14): 4.2 mmol/L
- plasma potassium concentration, mean (baseline potassium <3.6 mmol/L, 8 mg QD, Day 28): 3.9 mmol/L
- plasma potassium concentration, mean (baseline potassium <3.6 mmol/L, 8 mg QD, Day 42): 4.0 mmol/L
- plasma potassium concentration, mean (baseline potassium <3.6 mmol/L, 8 mg QD, Day 56): 4.0 mmol/L
- plasma potassium concentration, mean (baseline potassium <3.6 mmol/L, 8 mg QD, Day 70 (placebo withdrawal)): 3.7 mmol/L
- plasma potassium concentration, mean (baseline potassium <3.6 mmol/L, 12 mg QD, Day 1 (baseline)): 3.3 mmol/L
- plasma potassium concentration, mean (baseline potassium <3.6 mmol/L, 12 mg QD, Day 14): 3.9 mmol/L
- plasma potassium concentration, mean (baseline potassium <3.6 mmol/L, 12 mg QD, Day 28): 4.0 mmol/L
- plasma potassium concentration, mean (baseline potassium <3.6 mmol/L, 12 mg QD, Day 42): 4.1 mmol/L
- plasma potassium concentration, mean (baseline potassium <3.6 mmol/L, 12 mg QD, Day 56): 3.8 mmol/L
- plasma potassium concentration, mean (baseline potassium <3.6 mmol/L, 12 mg QD, Day 70 (placebo withdrawal)): 3.7 mmol/L
- plasma potassium concentration, mean (baseline potassium ≤3.0 mmol/L, all doses QD, Day 1 (baseline)): 2.9 mmol/L
- plasma potassium concentration, mean (baseline potassium ≤3.0 mmol/L, all doses QD, Day 14): 3.9 mmol/L
- plasma potassium concentration, mean (baseline potassium ≤3.0 mmol/L, all doses QD, Day 28): 3.9 mmol/L
- plasma potassium concentration, mean (baseline potassium ≤3.0 mmol/L, all doses QD, Day 42): 4.0 mmol/L
- plasma potassium concentration, mean (baseline potassium ≤3.0 mmol/L, all doses QD, Day 56): 3.9 mmol/L
- plasma potassium concentration, mean (baseline potassium ≤3.0 mmol/L, all doses QD, Day 70 (placebo withdrawal)): 3.5 mmol/L
- plasma potassium concentration, mean (baseline potassium ≥3.6 mmol/L, 4 mg QD, Day 1 (baseline)): 3.8 mmol/L
- plasma potassium concentration, mean (baseline potassium ≥3.6 mmol/L, 4 mg QD, Day 14): 4.6 mmol/L
- plasma potassium concentration, mean (baseline potassium ≥3.6 mmol/L, 4 mg QD, Day 28): 4.0 mmol/L
- plasma potassium concentration, mean (baseline potassium ≥3.6 mmol/L, 4 mg QD, Day 42): 4.3 mmol/L
- plasma potassium concentration, mean (baseline potassium ≥3.6 mmol/L, 4 mg QD, Day 56): 4.3 mmol/L
- plasma potassium concentration, mean (baseline potassium ≥3.6 mmol/L, 4 mg QD, Day 70 (placebo withdrawal)): 4.0 mmol/L
- plasma potassium concentration, mean (baseline potassium ≥3.6 mmol/L, 8 mg QD, Day 1 (baseline)): 3.8 mmol/L
- plasma potassium concentration, mean (baseline potassium ≥3.6 mmol/L, 8 mg QD, Day 14): 4.3 mmol/L
- plasma potassium concentration, mean (baseline potassium ≥3.6 mmol/L, 8 mg QD, Day 28): 4.1 mmol/L
- plasma potassium concentration, mean (baseline potassium ≥3.6 mmol/L, 8 mg QD, Day 42): 3.9 mmol/L
- plasma potassium concentration, mean (baseline potassium ≥3.6 mmol/L, 8 mg QD, Day 56): 4.1 mmol/L
- plasma potassium concentration, mean (baseline potassium ≥3.6 mmol/L, 8 mg QD, Day 70 (placebo withdrawal)): 3.9 mmol/L
- plasma potassium concentration, mean (baseline potassium ≥3.6 mmol/L, 12 mg QD, Day 1 (baseline)): 3.9 mmol/L
- plasma potassium concentration, mean (baseline potassium ≥3.6 mmol/L, 12 mg QD, Day 14): 4.0 mmol/L
- plasma potassium concentration, mean (baseline potassium ≥3.6 mmol/L, 12 mg QD, Day 28): 4.1 mmol/L
- plasma potassium concentration, mean (baseline potassium ≥3.6 mmol/L, 12 mg QD, Day 42): 4.0 mmol/L
- plasma potassium concentration, mean (baseline potassium ≥3.6 mmol/L, 12 mg QD, Day 56): 3.9 mmol/L
- plasma potassium concentration, mean (baseline potassium ≥3.6 mmol/L, 12 mg QD, Day 70 (placebo withdrawal)): 3.7 mmol/L
- plasma potassium concentration, mean (baseline ≤3.0 mmol/L despite potassium supplements, all doses QD, Day 1 (baseline)): 3.2 mmol/L
- plasma potassium concentration, mean (baseline ≤3.0 mmol/L despite potassium supplements, all doses QD, Day 14): 4.0 mmol/L
- plasma potassium concentration, mean (baseline ≤3.0 mmol/L despite potassium supplements, all doses QD, Day 28): 4.1 mmol/L
- plasma potassium concentration, mean (baseline ≤3.0 mmol/L despite potassium supplements, all doses QD, Day 42): 4.2 mmol/L
- plasma potassium concentration, mean (baseline ≤3.0 mmol/L despite potassium supplements, all doses QD, Day 56): 4.0 mmol/L
- plasma potassium concentration, mean (baseline ≤3.0 mmol/L despite potassium supplements, all doses QD, Day 70 (placebo withdrawal)): 3.8 mmol/L
- effect on plasma potassium concentration (each dose arm, sustained over active treatment period): rapid and significant (p<0.001) increase in plasma potassium concentrations
- plasma potassium concentration, mean (in presence of potassium supplements, all doses QD, Day 1 (baseline)): 3.3 mmol/L
- plasma potassium concentration, mean (in presence of potassium supplements, all doses QD, Day 14): 4.1 mmol/L
- plasma potassium concentration, mean (in presence of potassium supplements, all doses QD, Day 28): 4.0 mmol/L
- plasma potassium concentration, mean (in presence of potassium supplements, all doses QD, Day 42): 4.1 mmol/L
- plasma potassium concentration, mean (in presence of potassium supplements, all doses QD, Day 56): 4.1 mmol/L
- plasma potassium concentration, mean (in presence of potassium supplements, all doses QD, Day 70 (placebo withdrawal)): 3.8 mmol/L
